The results in this text go back to patent US20110015133A1, “PAX2 AND PAX8 AS TUMOUR TARGETS FOR IMMUNOLOGIC AND MOLECULAR TREATMENT STRATEGIES” (Charite-Universitatsmedizin Berlin, priority 2006, published 2011).

Experiment [1] concerns CD3+CD8+ lymphocytes from patients with renal cell and ovarian cancer. Briefly: Screening of PAX8 candidate epitopes for recognition by T-cells (IFNγ/TNFα) in carcinoma patients. Format: cell-based, human. As to conditions: for recognition by T-cells of patients in peptide pools: 4 pools of three peptides each, every peptide in two pools. An excerpt:
To identify T-cell epitopes, they were screened for recognition by T-cells from patients with renal cell and ovarian cancer which are PAX8 positive tumours secreting cytokine IFNγ or TNFα in response to PAX 8 or control HIV peptide. By using 4 pools of three peptides each, every peptide was present in two pools.

The test system of experiment [2] is colon cancer cell line SW480. Briefly: Cr release assay, colon cancer cell line. The format is cell-based. The source says:
(§1) A panel of colorectal cancer cell lines has been characterized expressing both PAX2 and PAX8 to function as targets for recognition by specific T-cells (Table IV).

The subject of experiment [3] is T-cells of a patient with renal cancer. The experiment can be described thus: Induction of a T-cell response in a cancer patient. On the set-up: species or system human.
Experiment [4] concerns T2-cells loaded with peptide. Briefly: Cr release assay, peptide-loaded T2-cells. The format is cell-based. The note with it: T-cells induced against peptide 3496 in a renal cancer patient; 10:1 E:T; label = peptide loaded on T2.
Description: as §1

Setting [5] is: patient # 1 Ovarian, first line (IFNγ).
[6] abbreviates: patient # 1 Ovarian, second line (TNFα).
Where [7] appears, read: patient # 2 Ovarian, first line (IFNγ).
The mark [8] stands for this setting: patient # 2 Ovarian, second line (TNFα).
Where [9] appears, read: patient # 3 Ovarian, first line (IFNγ).
Where [10] appears, read: patient # 3 Ovarian, second line (TNFα).
The mark [11] stands for this setting: patient # 4 Ovarian, first line (IFNγ).
Where [12] appears, read: patient # 4 Ovarian, second line (TNFα).
The mark [13] stands for this setting: patient # 5 Ovarian, first line (IFNγ).
[14] abbreviates: patient # 5 Ovarian, second line (TNFα).
Where [15] appears, read: patient # 6 Ovarian, first line (IFNγ).
[16] abbreviates: patient # 6 Ovarian, second line (TNFα).
Where [17] appears, read: patient # 7 Renal cell, first line (IFNγ).
The mark [18] stands for this setting: patient # 7 Renal cell, second line (TNFα).
The mark [19] stands for this setting: patient # 8 Renal cell, first line (IFNγ).
Setting [20] is: patient # 8 Renal cell, second line (TNFα).
Where [21] appears, read: patient # 9 Renal cell, first line (IFNγ).
The mark [22] stands for this setting: patient # 9 Renal cell, second line (TNFα).

As to “A L L S G R E M V (ALLSGREMV; listed as Homo sapiens) [Peptide 359-367]”, the “PAX8 candidate epitope recognized (both pools containing it reactive)” value (from here on “PAX8 candidate epitope recognized”) in experiment [1] (setting [5]), in experiment [1] (setting [6]), in experiment [1] (setting [7]), in experiment [1] (setting [8]), in experiment [1] (setting [9]) and in experiment [1] (setting [10]) was “no” each time. The “PAX8 candidate epitope recognized” value in experiment [1] (setting [11]), in experiment [1] (setting [12]), in experiment [1] (setting [13]), in experiment [1] (setting [14]), in experiment [1] (setting [15]) and in experiment [1] (setting [16]) was “no” each time. Moreover, the “PAX8 candidate epitope recognized” value in experiment [1] (setting [17]), in experiment [1] (setting [18]), in experiment [1] (setting [19]), in experiment [1] (setting [20]), in experiment [1] (setting [21]) and in experiment [1] (setting [22]) was “no” throughout.

With “N L S T H Q T Y P V (NLSTHQTYPV; listed as Homo sapiens) [Peptide 288-298]”, the “PAX8 candidate epitope recognized” value in experiment [1] (setting [5]), in experiment [1] (setting [6]), in experiment [1] (setting [7]), in experiment [1] (setting [8]), in experiment [1] (setting [9]) and in experiment [1] (setting [10]) was “no” each time. Also, the “PAX8 candidate epitope recognized” value in experiment [1] (setting [11]), in experiment [1] (setting [12]), in experiment [1] (setting [13]), in experiment [1] (setting [14]), in experiment [1] (setting [15]) and in experiment [1] (setting [16]) was “no” throughout. Also, the “PAX8 candidate epitope recognized” value in experiment [1] (setting [17]), in experiment [1] (setting [18]), in experiment [1] (setting [19]), in experiment [1] (setting [20]), in experiment [1] (setting [21]) and in experiment [1] (setting [22]) was “no” in each case.

With “S L S S S A F L D L (SLSSSAFLDL; listed as Homo sapiens) [Peptide 323-333]”, the “recognition by T-cells of patients in peptide pools” value in experiment [1] is reported as “recognized in both pools”. Moreover, the “PAX8 candidate epitope recognized” value in experiment [1] (setting [5]) is reported as “yes”; in experiment [1] (setting [6]), “no”; in experiment [1] (setting [7]), “no”; in experiment [1] (setting [8]) it was “no”; in experiment [1] (setting [9]) it was “no”; in experiment [1] (setting [10]), “no”. The “PAX8 candidate epitope recognized” value in experiment [1] (setting [11]), in experiment [1] (setting [12]), in experiment [1] (setting [13]), in experiment [1] (setting [14]), in experiment [1] (setting [15]) and in experiment [1] (setting [16]) was “no” in each case. In addition, the “PAX8 candidate epitope recognized” value in experiment [1] (setting [17]), in experiment [1] (setting [18]), in experiment [1] (setting [19]), in experiment [1] (setting [20]), in experiment [1] (setting [21]) and in experiment [1] (setting [22]) was “no” in each case.

On to “T L D D G K A T L (TLDDGKATL; listed as Homo sapiens) [Peptide 270-278]”, for which the “PAX8 candidate epitope recognized” value in experiment [1] (setting [5]), in experiment [1] (setting [6]), in experiment [1] (setting [7]), in experiment [1] (setting [8]), in experiment [1] (setting [9]) and in experiment [1] (setting [10]) was “no” throughout. Besides, the “PAX8 candidate epitope recognized” value in experiment [1] (setting [11]), in experiment [1] (setting [12]), in experiment [1] (setting [13]), in experiment [1] (setting [14]), in experiment [1] (setting [15]) and in experiment [1] (setting [16]) was “no” in each case. Further, the “PAX8 candidate epitope recognized” value in experiment [1] (setting [17]), in experiment [1] (setting [18]), in experiment [1] (setting [19]), in experiment [1] (setting [20]), in experiment [1] (setting [21]) and in experiment [1] (setting [22]) was “no” throughout.

As for “T L P G Y P P H I (TLPGYPPHI; listed as Homo sapiens) [Peptide 370-378]”, the “PAX8 candidate epitope recognized” value in experiment [1] (setting [5]), in experiment [1] (setting [6]), in experiment [1] (setting [7]), in experiment [1] (setting [8]), in experiment [1] (setting [9]) and in experiment [1] (setting [10]) was “no” throughout. In addition, the “PAX8 candidate epitope recognized” value in experiment [1] (setting [11]), in experiment [1] (setting [12]), in experiment [1] (setting [13]), in experiment [1] (setting [14]), in experiment [1] (setting [15]) and in experiment [1] (setting [16]) was “no” throughout. Moreover, the “PAX8 candidate epitope recognized” value in experiment [1] (setting [17]), in experiment [1] (setting [18]), in experiment [1] (setting [19]), in experiment [1] (setting [20]), in experiment [1] (setting [21]) and in experiment [1] (setting [22]) was “no” in each case.

With T L P G Y P P H V [Peptide 3496], in experiment [2] (T-cells induced against peptide 3496, with cold target), the “cytolysis of SW480 inhibited by cold target” value is 10%. For the same substance, in experiment [2] (T-cells induced against peptide 3496 in a renal cancer patient), the “specific cytolysis of colon cancer cell line SW480” value is given as 28%. The “induction of specific T-cells against the peptide” value in experiment [3] is listed as “able to induce specific T-cells”. For the same substance, the “specific cytolysis (killing) of peptide-loaded T2-cells” value in experiment [4] stood at 32%.

With “T L T P S N T P L (TLTPSNTPL; listed as Homo sapiens) [Peptide 277-285]”, the “recognition by T-cells of patients in peptide pools” value in experiment [1] was “recognized in both pools”. Besides, the “PAX8 candidate epitope recognized” value in experiment [1] (setting [5]), in experiment [1] (setting [6]), in experiment [1] (setting [7]), in experiment [1] (setting [8]), in experiment [1] (setting [9]) and in experiment [1] (setting [10]) was “no” each time. Also, the “PAX8 candidate epitope recognized” value in experiment [1] (setting [11]), in experiment [1] (setting [12]), in experiment [1] (setting [13]), in experiment [1] (setting [14]), in experiment [1] (setting [15]) and in experiment [1] (setting [16]) was “no” each time. In addition, the “PAX8 candidate epitope recognized” value in experiment [1] (setting [17]) was “no”; in experiment [1] (setting [18]), “no”; in experiment [1] (setting [19]), “no”; in experiment [1] (setting [20]), “no”; in experiment [1] (setting [21]) it was “no”; in experiment [1] (setting [22]), “yes”.
